Consider eight molecules from ChEMBL document CHEMBL3272104, “Inhibition of Lactobacillus casei thymidylate synthetase by 5-substituted 2'-deoxyuridylates. Preliminary quantitative structure-activity relationship” (J Med Chem, 1977).

A word on the Km: it is the substrate concentration at which the rate is half of its maximum.

In series [1] the target is T1, Thymidylate synthase (Lactobacillus casei, UniProt P00469).
T1 sequence (P00469 whole entry): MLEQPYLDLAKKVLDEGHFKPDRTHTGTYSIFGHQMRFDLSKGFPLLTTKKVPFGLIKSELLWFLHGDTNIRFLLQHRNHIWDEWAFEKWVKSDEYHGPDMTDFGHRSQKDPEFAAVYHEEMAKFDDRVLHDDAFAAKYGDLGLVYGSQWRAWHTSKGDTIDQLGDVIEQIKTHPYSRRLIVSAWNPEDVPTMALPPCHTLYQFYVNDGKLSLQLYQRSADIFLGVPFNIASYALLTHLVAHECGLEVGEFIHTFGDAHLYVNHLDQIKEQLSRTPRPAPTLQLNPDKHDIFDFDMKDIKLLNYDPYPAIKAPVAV
The series can be described thus: Inhibition of amethopterin-resistant Lactobacillus casei thymidylate synthetase-catalyzed dTMP formation using dUMP as substrate by spectrophotometric analysis in presence of CH2-H4-folate. The following applies: read-out: Ki(app). More on the design: species or system Lacticaseibacillus casei.

Series [2] deals with T2, Thymidylate synthase (Lactobacillus casei) (UniProt P00469).
T2 sequence (whole entry): T1 sequence (P00469 whole entry)
The series can be described thus: Activity at amethopterin-resistant Lactobacillus casei thymidylate synthetase assessed as rate of dTMP formation by absorbance analysis in presence of CH2-H4-folate. The settings on record: Lacticaseibacillus casei.

In series [3] the target is T1, Thymidylate synthase. Briefly: Inhibition of amethopterin-resistant Lactobacillus casei thymidylate synthetase-catalyzed 5-BrdUMP dehalogenation by absorbance analysis in absence of CH2-H4-folate. More on the design: species or system Lacticaseibacillus casei. The settings on record: read-out: Ki(app).
Substrate in series [4]: O=c1[nH]c(=O)n([C@H]2C[C@H](O)[C@@H](COP(=O)(O)O)O2)cc1Br
The series can be described thus: Activity at amethopterin-resistant Lactobacillus casei thymidylate synthetase by absorbance analysis. The settings on record: Lacticaseibacillus casei.

Substrate in series [5]: O=c1[nH]c(=O)n([C@H]2C[C@H](O)[C@@H](COP(=O)(O)O)O2)cc1I
The series is described as above. The following applies: Lacticaseibacillus casei.

Substrate in series [6]: O=c1ccn([C@H]2C[C@H](O)[C@@H](COP(=O)(O)O)O2)c(=O)[nH]1
Description: Activity at amethopterin-resistant Lactobacillus casei thymidylate synthetase by spectrophotometric analysis in presence of CH2-H4-folate
The following applies: Lacticaseibacillus casei.

On to `O=Cc1cn([C@H]2C[C@H](O)[C@@H](COP(=O)(O)O)O2)c(=O)[nH]c1=O`, for which the Ki at Thymidylate synthase [1] is 17 nM. For the molecule `O=c1[nH]c(=O)n([C@H]2C[C@H](O)[C@@H](COP(=O)(O)O)O2)cc1C(F)(F)F`, on Thymidylate synthase [1], the Ki came out at 39 nM. In the case of `O=c1[nH]c(=O)n([C@H]2C[C@H](O)[C@@H](COP(=O)(O)O)O2)cc1Br`, at Thymidylate synthase [1], the Ki is 1400 nM. Moreover, the Activity in series [2] worked out at 3%. Take `O=c1[nH]c(=O)n([C@H]2C[C@H](O)[C@@H](COP(=O)(O)O)O2)cc1Cl`: the Ki was 9390 nM on Thymidylate synthase [3] and 190 nM at Thymidylate synthase [1].

As for `O=c1[nH]c(=O)n([C@H]2C[C@H](O)[C@@H](COP(=O)(O)O)O2)cc1I`, the Ki on Thymidylate synthase [1] is 1600 nM. The Activity in series [2] came to 2.5%. Consider `Cc1cn([C@H]2C[C@H](O)[C@@H](COP(=O)(O)O)O2)c(=O)[nH]c1=O` [THYMIDINE MONOPHOSPHATE], for which the Ki turned out to be 8690 nM at Thymidylate synthase [3] and 15500 nM on Thymidylate synthase [1]. As to `O=c1ccn([C@H]2C[C@H](O)[C@@H](COP(=O)(O)O)O2)c(=O)[nH]1` [DEOXYURIDINE MONOPHOSPHATE], the Ki at Thymidylate synthase [3] amounted to 2260 nM.

B1: Thymidylate synthase (Lactobacillus casei), P00469 (protein)
chain: T1 sequence (P00469 whole entry)
As to B1, the Km in series [4] is 5.7 µM; in series [5] it was 1.44 µM; in series [6], 5.2 µM.
